US4721730A, “Adsorbent for β2 -microglobulin and immunoglobulin L-chain” (Kanegafuchi Kagaku Kogyo Kabushiki Kaisha, priority 1986, dated 1988)

Tested on: β2-m and L-chain
Assay: adsorption ability of immobilized compounds / carriers for β2-m and L-chain
Type: binding
Settings: compound immobilized onto a carrier; in words
Source text: In order to find out a compound which has an effect on adsorbing β2 -m and L-chain, compounds having various log P are immobilized onto a carrier.
As the result of an investigation using carriers having various molucular weights of the exclusion limit, it is shown that the preferable range of pore size indicated by molecular weight of the exclusion limit is from 1×10^4 to 6×10^5. […] Therefore, the molecular weight of the exclusion limit of the carrier empolyed in the present invention is preferably from 1×10^4 to 6×10^5,more preferably from 2×10^4 to 3×10^5.

Which “adsorption ability of β2-m and L-chain” value does the source give for CCCCCCCCN [n-octylamine] here?
Its value is “extraordinarily increased”.
